The record followed here is ChEMBL document CHEMBL3639003, “Heteroaryloxycarbocyclyl compounds as PDE10 inhibitors” (2015).

In the experiment the target is cAMP and cAMP-inhibited cGMP 3',5'-cyclic phosphodiesterase 10A (Homo sapiens, UniProt Q9Y233). Description: IMAP TR-FRET Assay: Enzyme Activity. An IMAP TR-FRET assay was used to analyze the enzyme activity (Molecular Devices Corp., Sunnyvale Calif.). 5 uL, of serial diluted PDE10A (BPS Bioscience, San Diego, Calif.) or tissue homogenate was incubated with equal volumes of diluted fluorescein labeled cAMP or cGMP for 60 min in 384-well polystyrene assay plates (Corning, Corning, N.Y.) at room temperature. After incubation, the reaction was stopped by adding 60 uL, of diluted binding reagents and was incubated for 3 hours to overnight at room temperature. The plates were read on an Envision (Perkin Elmer, Waltham, Mass.) for time resolved fluorescence resonance energy transfer. The data were analyzed with GraphPad Prism (La Jolla, Calif.).Enzyme Inhibition. To check the inhibition profile, 5 uL, of serial diluted compounds were incubated with 5 uL, of diluted PDE10 enzyme (BPS Bioscience, San Diego, Calif.) or tissue homogenate in a 384-well polystyrene assay plate (Corning, Corning, N.Y.).
cAMP and cAMP-inhibited cGMP 3',5'-cyclic phosphodiesterase 10A, sequence (Q9Y233 whole entry): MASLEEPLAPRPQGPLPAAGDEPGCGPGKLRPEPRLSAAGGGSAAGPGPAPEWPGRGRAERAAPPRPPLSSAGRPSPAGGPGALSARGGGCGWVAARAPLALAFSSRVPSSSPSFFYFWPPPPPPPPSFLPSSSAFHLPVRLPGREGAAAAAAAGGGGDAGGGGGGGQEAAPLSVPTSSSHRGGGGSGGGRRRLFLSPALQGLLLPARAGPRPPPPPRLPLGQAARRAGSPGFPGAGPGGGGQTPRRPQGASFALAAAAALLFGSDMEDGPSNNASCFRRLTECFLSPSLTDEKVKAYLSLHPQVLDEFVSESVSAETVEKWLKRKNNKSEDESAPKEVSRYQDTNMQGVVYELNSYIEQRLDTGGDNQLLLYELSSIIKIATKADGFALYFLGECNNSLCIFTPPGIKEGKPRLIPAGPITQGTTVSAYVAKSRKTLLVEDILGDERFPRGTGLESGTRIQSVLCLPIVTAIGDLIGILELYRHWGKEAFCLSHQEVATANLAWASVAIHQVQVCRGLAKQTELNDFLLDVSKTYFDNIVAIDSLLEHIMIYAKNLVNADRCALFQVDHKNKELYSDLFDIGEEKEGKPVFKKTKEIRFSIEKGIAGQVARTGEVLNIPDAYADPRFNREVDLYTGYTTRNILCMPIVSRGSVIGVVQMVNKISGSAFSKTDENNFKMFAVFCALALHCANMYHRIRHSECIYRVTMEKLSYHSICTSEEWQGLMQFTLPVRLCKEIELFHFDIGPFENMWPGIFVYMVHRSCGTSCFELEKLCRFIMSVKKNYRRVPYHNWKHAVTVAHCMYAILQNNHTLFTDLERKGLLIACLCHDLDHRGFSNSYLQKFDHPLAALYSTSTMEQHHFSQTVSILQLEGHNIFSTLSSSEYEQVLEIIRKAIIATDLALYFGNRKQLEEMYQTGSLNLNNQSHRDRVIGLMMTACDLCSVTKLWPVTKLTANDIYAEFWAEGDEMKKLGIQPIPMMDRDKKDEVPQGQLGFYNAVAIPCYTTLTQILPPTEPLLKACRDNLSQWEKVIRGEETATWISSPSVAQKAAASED

`Cc1cc(-c2cccnc2O[C@H]2CC[C@H](Nc3nc4ccccc4s3)CC2)ccn1` showed an IC50 of 19.6 nM. On to `CC(=O)N1CCC(c2cccnc2O[C@H]2C[C@@H](Nc3ccc4ccccc4n3)C2)CC1`, for which the IC50 was found to be 1.32 nM. For `NC(=O)c1ccc(-c2nccnc2O[C@H]2C[C@@H](Nc3ccc4ccccc4n3)C2)cn1`, the IC50 was 3.8 nM. For `Cc1ccnc(N[C@H]2CC[C@H](Oc3ncccc3C3CCOCC3)CC2)c1` the value was 150 nM; for `Cc1cccnc1N[C@H]1CC[C@H](Oc2ncccc2C2CCOCC2)CC1`, 46 nM; for `Cc1cccc(N[C@H]2CC[C@H](Oc3ncccc3C3CCOCC3)CC2)n1`, 1750 nM. `c1cnc(O[C@H]2CC[C@H](Nc3ccc4ccccc4n3)CC2)c(C2CCOCC2)c1` gave an IC50 of 91 nM. For `c1cnc(O[C@H]2CC[C@H](Nc3nc4ccccc4o3)CC2)c(C2CCOCC2)c1` the value was 12 nM; for `c1cnc(O[C@H]2CC[C@H](Nc3nc4ccccc4s3)CC2)c(C2CCOCC2)c1`, 32.5 nM. For the molecule `Cc1ccc(N[C@H]2C[C@H](Oc3ncccc3C3CCOCC3)C2)nc1`, the IC50 amounted to 17.6 nM. For `CC(=O)N1CCC(c2nccnc2O[C@H]2C[C@@H](Nc3nc4ccccc4s3)C2)CC1` the value was 2.77 nM; for `CC(=O)N1CCC(c2nccnc2O[C@H]2C[C@H](Nc3ccc4ccccc4n3)C2)CC1`, 15.8 nM; for `O=C(c1ccccn1)C1CC(Oc2ncccc2C2CCOCC2)C1` (centres undefined), 250 nM. Molecule `CC(=O)N1CCC(c2nccnc2O[C@H]2C[C@@H](Nc3ccc(C)cn3)C2)CC1` yielded an IC50 of 66.1 nM.

Take `CC(=O)N1CCC(c2nccnc2O[C@H]2C[C@H](Nc3ccc(C)cn3)C2)CC1`: the IC50 was determined as 84.6 nM.

On to `c1cnc(O[C@H]2C[C@@H](Nc3nc4ccccc4[nH]3)C2)c(C2CCOCC2)c1`, for which the IC50 is 1.53 nM.

In turn, `c1cnc(O[C@H]2C[C@H](Nc3nc4ccccc4[nH]3)C2)c(C2CCOCC2)c1` gave an IC50 of 2.63 nM. For `c1cnc(O[C@H]2C[C@H](Nc3nc4ccccc4s3)C2)c(C2CCOCC2)c1` the value was 3.19 nM; for `c1cnc(O[C@H]2C[C@@H](Nc3nc4ccccc4s3)C2)c(C2CCOCC2)c1`, 0.751 nM.

The molecule `Fc1cccc2sc(N[C@H]3C[C@@H](Oc4nccnc4C4CCOCC4)C3)nc12` gave an IC50 of 13 nM.

In the case of `Fc1ccc2sc(N[C@H]3C[C@@H](Oc4nccnc4C4CCOCC4)C3)nc2c1`, the IC50 amounted to 18.3 nM. For `Fc1ccc2nc(N[C@H]3C[C@@H](Oc4nccnc4C4CCOCC4)C3)sc2c1` the value was 15.1 nM; for `Fc1cnc(O[C@H]2C[C@@H](Nc3nc4c(F)cccc4s3)C2)c(C2CCOCC2)c1`, 5.43 nM; for `Fc1cnc(O[C@H]2C[C@@H](Nc3nc4cc(F)ccc4s3)C2)c(C2CCOCC2)c1`, 3.49 nM. For `Clc1ccc(C2=CCOCC2)c(O[C@H]2C[C@@H](Nc3nc4ccccc4s3)C2)n1` the value was 3.55 nM; for `Cc1cnccc1-c1nccnc1O[C@H]1C[C@@H](Nc2nc3ccccc3s2)C1`, 4.23 nM; for `Cc1cc(-c2nccnc2O[C@H]2C[C@@H](Nc3nc4ccccc4s3)C2)ccn1`, 20.5 nM.

Regarding `COc1ncccc1-c1nccnc1O[C@H]1C[C@@H](Nc2nc3ccccc3s2)C1`, the IC50 was found to be 4.11 nM. For `Cc1ncc(-c2nccnc2O[C@H]2C[C@@H](Nc3nc4ccccc4s3)C2)cn1` the value was 3.25 nM; for `Clc1ccc(-c2nccnc2O[C@H]2C[C@@H](Nc3nc4ccccc4s3)C2)cn1`, 7.66 nM. Regarding `N#Cc1ccc(-c2nccnc2O[C@H]2C[C@@H](Nc3nc4ccccc4s3)C2)cn1`, the IC50 was 7.4 nM.

Molecule `Cc1ccc(-c2nccnc2O[C@H]2C[C@@H](Nc3nc4cc(F)ccc4s3)C2)cn1` displayed an IC50 of 19.7 nM. Consider `N#Cc1ccc(-c2nccnc2O[C@H]2C[C@@H](Nc3ccc4ccccc4n3)C2)cn1`, for which the IC50 was 8.35 nM. For the molecule `N#Cc1ccc(-c2nccnc2O[C@H]2C[C@@H](Nc3ncc4ccccc4n3)C2)cn1`, the IC50 is 7.71 nM. For `N#Cc1ccc(-c2cccnc2O[C@H]2C[C@H](Nc3nc4ccccc4s3)C2)cn1` the value was 2.97 nM. As for `NC(=O)c1ccc(-c2nccnc2O[C@H]2C[C@@H](Nc3nc4ccccc4s3)C2)cn1`, the IC50 was 2.96 nM.

`NC(=O)c1ccc(-c2cccnc2O[C@H]2C[C@@H](Nc3nc4ccccc4s3)C2)cn1`: the IC50 stood at 0.129 nM. As to `COCC(=O)N1CCC(c2nccnc2O[C@H]2C[C@@H](Nc3nc4ccccc4s3)C2)CC1`, the IC50 worked out at 6.57 nM. `COC(=O)N1CC(c2nccnc2O[C@H]2C[C@@H](Nc3nc4ccccc4s3)C2)C1`: the IC50 was 17.5 nM. In turn, `COCC(=O)N1CCC(c2nccnc2O[C@H]2C[C@@H](Nc3ccc4ccccc4n3)C2)CC1` registered an IC50 of 5.06 nM. For `COC(=O)N1CCC(c2cccnc2O[C@H]2C[C@@H](Nc3nc4ccccc4s3)C2)CC1` the value was 3.18 nM. Regarding `COCC(=O)N1CCC(c2cccnc2O[C@H]2C[C@@H](Nc3ccc4ccccc4n3)C2)CC1`, the IC50 came out at 0.948 nM.

`OCC1CCN(c2nccnc2O[C@H]2C[C@@H](Nc3nc4ccccc4s3)C2)CC1` registered an IC50 of 3.16 nM. For `c1ccc2sc(N[C@H]3C[C@@H](Oc4nccnc4N4CCOCC4)C3)nc2c1` the value was 22.4 nM; for `CC1CCN(c2nccnc2O[C@H]2C[C@@H](Nc3nc4ccccc4s3)C2)C1` (some centres undefined), 6.92 nM; for `N#CC1CCN(c2nccnc2O[C@H]2C[C@@H](Nc3nc4ccccc4s3)C2)C1` (some centres undefined), 1.07 nM.

`CC1CCCN(c2nccnc2O[C@H]2C[C@@H](Nc3nc4ccccc4s3)C2)C1` (some centres undefined): the IC50 is 29.4 nM. As to `OCC1CCCN(c2nccnc2O[C@H]2C[C@@H](Nc3nc4ccccc4s3)C2)C1` (some centres undefined), the IC50 was determined as 3.62 nM.

`FC1(F)CCN(c2nccnc2O[C@H]2C[C@@H](Nc3nc4ccccc4s3)C2)C1` gave an IC50 of 11.1 nM. For the molecule `O=S1(=O)CCN(c2nccnc2O[C@H]2C[C@@H](Nc3nc4ccccc4s3)C2)CC1`, the IC50 amounted to 18.5 nM.

Molecule `O[C@@H]1CCN(c2nccnc2O[C@H]2C[C@@H](Nc3nc4ccccc4s3)C2)C1` had a 50% inhibitory concentration (IC50) of 14.2 nM. For `O[C@H]1CCN(c2nccnc2O[C@H]2C[C@@H](Nc3nc4ccccc4s3)C2)C1` the value was 17.5 nM; for `N#CC1CCN(c2nccnc2O[C@H]2C[C@@H](Nc3nc4ccccc4s3)C2)CC1`, 2.31 nM; for `CN1CCN(c2nccnc2O[C@H]2C[C@@H](Nc3nc4ccccc4s3)C2)CC1`, 122 nM.

For `N#CC1CCN(c2nccnc2O[C@H]2C[C@@H](Nc3ccc4ccccc4n3)C2)CC1`, the IC50 stood at 2.26 nM. In turn, `CN1CCN(c2nccnc2O[C@H]2C[C@@H](Nc3ncc4ccccc4n3)C2)CC1` yielded an IC50 of 316 nM. For `OCC1CCN(c2nccnc2O[C@H]2C[C@@H](Nc3ncc4ccccc4n3)C2)CC1` the value was 10.9 nM. For `CC(=O)N1CCN(c2nccnc2O[C@H]2C[C@@H](Nc3nc4ccccc4s3)C2)CC1` the value was 9.26 nM; for `CC(=O)N1CCN(c2nccnc2O[C@H]2C[C@@H](Nc3ccc4ccccc4n3)C2)CC1`, 23.7 nM. The molecule `N#CC1CCN(c2cccnc2O[C@H]2C[C@@H](Nc3nc4ccccc4s3)C2)CC1` displayed an IC50 of 1.25 nM.

As for `c1cnc(O[C@H]2C[C@@H](Nc3ccc4ccccc4n3)C2)c(C2CCOCC2)c1`, the half-inhibitory concentration (IC50) came to 1.5 nM. For `c1ccc2nc(N[C@H]3C[C@@H](Oc4nccnc4C4CCOCC4)C3)ccc2c1` the value was 7.5 nM; for `COC(=O)N1CCC(c2nccnc2O[C@H]2C[C@@H](Nc3nc4ccccc4s3)C2)CC1`, 4.24 nM; for `O=C(c1nc2ccccc2[nH]1)[C@H]1C[C@H](Oc2ncccc2C2CCOCC2)C1`, 7.15 nM.
